The source of these data is patent publication US20250163022A1, “PARP1 INHIBITORS” (Synnovation Therapeutics, Inc., priority 2021, published 2025).

Each structure is given as a SMILES string.

For this experiment, the target named is T1, PARP1 (Homo sapiens, UniProt P09874).
T1 construct: HeLa cells (wide-type with PARP1 gene) were purchased from ATCC; host or cells: HeLa (wild type)
The experiment can be described thus: In-Cell Western measurement of PARylation in PARP1 WT and knockout cells. Type of experiment: cell-based. Particulars: HeLa cells (wide-type with PARP1 gene); hydrogen peroxide-induced PARylation; compounds 30 min, then 10 mM hydrogen peroxide 15 min; read-out: HeLa_WT_IC50. Summed up: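 Wild-type and PARP1-knockout HEK-293T and HAP1 cells, plus HeLa, pretreated with compound 30 min, then stimulated with 10 mM hydrogen peroxide for 15 min. Methanol-fixed cells immunostained for PARylation and imaged by In-Cell Western with infrared secondary antibody; IC50 fitted from signal.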

T1 sequence (P09874 whole entry): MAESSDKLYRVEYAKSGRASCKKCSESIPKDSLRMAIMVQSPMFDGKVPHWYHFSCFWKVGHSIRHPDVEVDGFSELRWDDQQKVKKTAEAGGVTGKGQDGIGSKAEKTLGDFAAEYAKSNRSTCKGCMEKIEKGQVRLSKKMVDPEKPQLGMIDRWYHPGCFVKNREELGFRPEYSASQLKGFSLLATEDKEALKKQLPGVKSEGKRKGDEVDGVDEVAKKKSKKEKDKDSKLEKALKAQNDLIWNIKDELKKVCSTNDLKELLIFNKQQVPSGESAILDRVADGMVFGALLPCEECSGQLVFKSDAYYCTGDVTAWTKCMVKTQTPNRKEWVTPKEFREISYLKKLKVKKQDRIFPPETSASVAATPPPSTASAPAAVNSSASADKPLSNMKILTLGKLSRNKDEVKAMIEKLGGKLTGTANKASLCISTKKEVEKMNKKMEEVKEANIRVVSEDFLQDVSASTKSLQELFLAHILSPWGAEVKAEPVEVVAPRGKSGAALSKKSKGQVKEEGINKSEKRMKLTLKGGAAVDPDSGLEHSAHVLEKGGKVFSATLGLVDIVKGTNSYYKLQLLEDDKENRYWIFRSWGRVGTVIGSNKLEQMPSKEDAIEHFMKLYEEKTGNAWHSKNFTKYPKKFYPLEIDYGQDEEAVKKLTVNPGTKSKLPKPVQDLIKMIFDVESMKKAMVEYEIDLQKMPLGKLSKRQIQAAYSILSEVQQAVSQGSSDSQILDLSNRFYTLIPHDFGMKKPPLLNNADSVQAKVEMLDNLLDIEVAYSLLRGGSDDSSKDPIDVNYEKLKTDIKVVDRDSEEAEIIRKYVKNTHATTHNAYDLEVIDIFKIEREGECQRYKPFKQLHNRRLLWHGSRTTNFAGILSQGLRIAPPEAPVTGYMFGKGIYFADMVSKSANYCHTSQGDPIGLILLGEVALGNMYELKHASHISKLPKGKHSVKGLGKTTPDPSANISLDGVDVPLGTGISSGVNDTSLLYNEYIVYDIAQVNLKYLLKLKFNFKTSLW

For `CCN1C(=O)Nc2c(F)c(CN3CCN(c4ccc(C(=O)NC5CC5)cc4F)CC3)cc3ncnc1c23` [Compound I-86, N-cyclopropyl-4-(4-((3-ethyl-9-fluoro-2-oxo-2,3-dihydro-1H-pyrimido[4,5,6-de]quinazolin-8-yl)methyl)piperazin-1-yl)-3-fluorobenzamide], the IC50 is 0.01 to 0.1 µM.

`CCn1c(=O)[nH]c2cc(CN3CCN(c4ccc(C(=O)NC)nc4)CC3)ccc2c1=O` [Compound I-1, 5-(4-((3-Ethyl-2,4-dioxo-1,2,3,4-tetrahydroquinazolin-7-yl)methyl)piperazin-1-yl)-N-methylpicolinamide]: the IC50 was no more than 0.01 µM.

Consider `CCN1C(=O)Nc2c(F)c(CN3CCN(c4ccc(C(=O)NC5(CC#N)CC5)c(F)c4F)CC3)cc3ncnc1c23` [Compound I-95, N-(1-(cyanomethyl)cyclopropyl)-4-(4-((3-ethyl-9-fluoro-2-oxo-2,3-dihydro-1H-pyrimido[4,5,6-de]quinazolin-8-yl)methyl)piperazin-1-yl)-2,3-difluorobenzamide], for which the IC50 lay within 0.01 to 0.1 µM.

In the case of `CCn1c(=O)[nH]c2cc(CN3CCN(c4ccc(C(=O)NC)nc4C(F)(F)F)CC3)ccc2c1=O` [Compound I-31, 5-(4-((3-Ethyl-2,4-dioxo-1,2,3,4-tetrahydroquinazolin-7-yl)methyl)piperazin-1-yl)-N-methyl-6-(trifluoromethyl)picolinamide], the IC50 was no more than 0.01 µM.
